Data: patent US11447486B2, “2-amino-benzimidazole derivatives and their use as 5-lipoxygenase and/or prostaglandin E synthase inhibitors” (INSTITUT PASTEUR KOREA, priority 2014, dated 2022)

Experiments:
human 5-LOX = biological target: T1, human 5-LOX (Homo sapiens, UniProt P09917); experiment: 5-LOX enzyme activity, fluorescence method (5-HPETE, H2DCFDA); assay type: biochemical; details: read-out: 5-LO (IC50)
T1 construct: purchased Cayman 60402; host or cells: insect cells (lysate)
T1 sequence (P09917 1-674): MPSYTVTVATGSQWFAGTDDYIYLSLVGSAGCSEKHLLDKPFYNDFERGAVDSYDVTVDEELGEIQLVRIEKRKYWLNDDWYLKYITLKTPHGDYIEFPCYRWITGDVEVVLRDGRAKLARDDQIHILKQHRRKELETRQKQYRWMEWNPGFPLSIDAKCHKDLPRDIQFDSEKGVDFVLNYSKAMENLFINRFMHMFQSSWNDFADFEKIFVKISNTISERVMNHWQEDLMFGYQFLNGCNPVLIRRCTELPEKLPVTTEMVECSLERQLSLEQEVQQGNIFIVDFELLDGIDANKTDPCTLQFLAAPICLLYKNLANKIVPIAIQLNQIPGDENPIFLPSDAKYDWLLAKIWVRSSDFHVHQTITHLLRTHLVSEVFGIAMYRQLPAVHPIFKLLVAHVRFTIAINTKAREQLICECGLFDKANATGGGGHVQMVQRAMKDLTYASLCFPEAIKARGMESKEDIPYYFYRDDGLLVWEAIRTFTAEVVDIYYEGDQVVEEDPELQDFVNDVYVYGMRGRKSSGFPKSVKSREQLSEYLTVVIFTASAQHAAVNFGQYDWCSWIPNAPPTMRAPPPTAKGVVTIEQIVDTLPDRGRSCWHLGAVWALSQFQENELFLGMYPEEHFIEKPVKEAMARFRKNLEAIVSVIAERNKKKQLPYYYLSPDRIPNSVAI
In short: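 Fluorescence-based read-out, run entirely at room temperature. Enzyme mixture was exposed to a dose range of compound from 0.5 nM to 10 uM for 5 min before ATP and arachidonic acid were added to final levels of 100 uM and 3 uM.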

[1] = system: Rat basophilic leukemia (RBL) cells; experiment: LTB4 secretion assay in RBL (rat basophilic leukemia cells); assay type: cell-based; details: Rattus norvegicus, RBL
In short: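 LTB4 released into supernatant was measured by EIA after 10 min at 37 °C with arachidonic acid (2.5 uM final) and calcium ionophore A23187 (5 uM final). Before stimulation, cells plated 2×10^4/well overnight received compound doses (5 nM to 100 uM) for 15 min in 0.5% FBS medium.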

Rat whole blood (RWB) = experiment: LTB4 secretion assay in RWB (rat whole blood); assay type: cell-based; details: Rattus norvegicus
In short: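 LTB4 release was measured by EIA in supernatants of pooled, sodium heparin rat blood (male Sprague Dawley, 6-9 weeks) diluted 1:1 with RPMI. Compounds (2.5 nM to 50 uM) were added 15 min before A23187 (10 uM final), with 10 min stimulation at 37 °C before ice-cold PBS quench.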

Row | SMILES | IC50 (human 5-LOX) | EC50 [1] | EC50 (Rat whole blood (RWB))
1 | CC(Nc1ccc2[nH]c(N(C)C)nc2c1)c1ccc(Oc2ccc(OC(F)(F)F)cc2)cc1 (stereo not drawn) [Compound 127] | < 1000 nM | < 10 µM | > 20 µM
2 | CCC(Nc1ccc2[nH]c(N(C)C)nc2c1)c1ccc(Oc2ccc(Cl)cc2)cc1 (stereo not drawn) [Compound 128] | < 1000 nM | < 10 µM | > 20 µM
3 | Nc1ccc2[nH]c(NCc3ccc(S(=O)(=O)c4ccc(Cl)cc4)cc3)nc2c1 [Compound 129] | < 1000 nM | < 10 µM | > 20 µM
4 | Nc1ccc2nc(NCc3ccc(C(=O)c4ccc(Cl)cc4)cc3)[nH]c2c1 [Compound 130] | < 1000 nM | < 10 µM | < 10 µM
5 | CCC(Nc1ccc2[nH]c(N(C)C)nc2c1)c1ccc(Oc2ccc(OC(F)(F)F)cc2)cc1 (stereo not drawn) [Compound 132] | < 1000 nM | < 10 µM | > 20 µM
6 | Nc1ccc2[nH]c(NCc3ccc(Oc4ccc(Cl)cc4Cl)cc3)nc2c1 [Compound 135] | < 1000 nM | < 10 µM | 10 to 20 µM
7 | Nc1ccc2[nH]c(NCc3ccc(Oc4ccc(Cl)nc4)cc3)nc2c1 [Compound 136] | < 1000 nM | < 10 µM | < 10 µM
8 | N#CC1(Nc2ccc3[nH]c(NCc4ccc(Oc5ccc(Cl)cc5)cc4)nc3c2)CCC1 [Compound 137] | < 1000 nM | < 10 µM | < 10 µM
9 | Nc1ccc2[nH]c(NCc3ccc(Oc4ccc(Cl)cn4)cc3)nc2c1 [Compound 138] | < 1000 nM | < 10 µM | < 10 µM
10 | Nc1ccc2[nH]c(N3CCCC3c3ccc(Oc4ccc(Cl)cc4)cc3)nc2c1 (stereo not drawn) [Compound 145] | < 1000 nM | < 10 µM | < 10 µM
11 | COCCNc1nc2ccc(N3CCC(Oc4ccc(OC(F)(F)F)cc4)C3)cc2[nH]1 (stereo not drawn) [Compound 148] | < 1000 nM | < 10 µM | > 20 µM
12 | Clc1ccc(Oc2ccc(CNc3nc4cc(NCc5ccccn5)ccc4[nH]3)cc2)cc1 [Compound 149] | < 1000 nM | < 10 µM | < 10 µM
13 | CC(Nc1ccc2nc(N(C)C)[nH]c2c1)c1ccc(Oc2ccc(OC(F)(F)F)cc2)nc1 (stereo not drawn) [Compound 150] | < 1000 nM | < 10 µM | > 20 µM
14 | CC(Nc1ccc2nc(N(C)C)[nH]c2c1)c1ccc(Oc2ccc(Cl)cn2)cc1 (stereo not drawn) [Compound 152] | < 1000 nM | < 10 µM | 10 to 20 µM
15 | Nc1ccc2nc(NCc3ccc(Oc4ncccn4)cc3)[nH]c2c1 [Compound 154] | < 1000 nM | > 20 µM | > 20 µM
16 | Nc1ccc2nc(NCCO)n(Cc3ccc(Oc4ccc(Cl)cc4)cc3)c2c1 [Compound 155] | < 1000 nM | < 10 µM | < 10 µM
17 | Nc1ccc2[nH]c(N3CCC(Oc4ccc(Cl)cn4)C3)nc2c1 (stereo not drawn) [Compound 160] | < 1000 nM | < 10 µM | > 20 µM
18 | Nc1ccc2nc(NC3CCCC3)n(Cc3ccc(Oc4ccc(Cl)cc4)cc3)c2c1 [Compound 161] | < 1000 nM | < 10 µM | 10 to 20 µM
19 | Nc1ccc2[nH]c(NCc3ccc(-c4ccc(Cl)cn4)cc3)nc2c1 [Compound 164] | < 1000 nM | < 10 µM | > 20 µM
20 | CC(C)(O)CNc1nc2ccc(N)cc2n1Cc1ccc(Oc2ccc(Cl)cc2)cc1 [Compound 165] | < 1000 nM | < 10 µM | < 10 µM

Row | SMILES | IC50 (human 5-LOX) | EC50 [1] | EC50 (Rat whole blood (RWB))
21 | Clc1ccc(Oc2ccc(CNc3nc4cc(NC5COC5)ccc4[nH]3)cc2)nc1 [Compound 166] | < 1000 nM | < 10 µM | < 10 µM
22 | CC(CC(F)(F)F)Oc1ccc(CNc2nc3ccc(N)cc3[nH]2)cc1 (stereo not drawn) [Compound 172] | < 1000 nM | < 10 µM | 10 to 20 µM
23 | Nc1ccc2nc(NCc3coc(-c4ccc(Cl)cc4)n3)[nH]c2c1 [Compound 175] | < 1000 nM | < 10 µM | > 20 µM
24 | Nc1ccc2nc(NCc3ccc(OCCC(F)(F)F)cc3)[nH]c2c1 [Compound 176] | < 1000 nM | < 10 µM | < 10 µM
25 | CC(C)(Nc1ccc2[nH]c(NCc3ccc(Oc4ccc(Cl)cn4)cc3)nc2c1)C(N)=O [Compound 177] | < 1000 nM | < 10 µM | < 10 µM
26 | Cn1c(NCc2ccc(Oc3ccc(Cl)cc3)cc2)nc2ccc(NC3COC3)cc21 [Compound 184] | < 1000 nM | < 10 µM | < 10 µM
27 | CN(C)c1nc2ccc(N3CCC(C(=O)c4ccc(OC(F)(F)F)cc4)C3)cc2[nH]1 (stereo not drawn) [Compound 190] | < 1000 nM | < 10 µM | > 20 µM
28 | COc1c(NC(C)c2ccc(Oc3ccc(OC(F)(F)F)cc3)cc2)ccc2[nH]c(N(C)C)nc12 (stereo not drawn) [Compound 191] | < 1000 nM | < 10 µM | > 20 µM
29 | Cn1c(NCc2ccc(Oc3ccc(Cl)cc3)cc2)nc2ccc(N3CC(F)(F)C3)cc21 [Compound 193] | > 10000 nM | < 10 µM | < 10 µM
30 | CN(C)c1nc2cc(NCc3ccc(-c4ccnn4C)cc3)ccc2[nH]1 [Compound 196] | < 1000 nM | < 10 µM | 10 to 20 µM
31 | CN(C)c1nc2ccc(NCc3ccc(-c4ccc(Cl)cn4)cc3)cc2[nH]1 [Compound 197] | < 1000 nM | < 10 µM | > 20 µM
32 | Nc1ccc2c(c1)nc(N)n2Cc1ccc(Oc2ccc(Cl)cn2)cc1 [Compound 199] | < 1000 nM | < 10 µM | < 10 µM
33 | CN(C)c1nc2cc(N3CCC(Oc4ccncc4)C3)ccc2[nH]1 (stereo not drawn) [Compound 202] | < 1000 nM | < 10 µM | > 20 µM
34 | CC(C)(O)Cn1c(NCc2ccc(Oc3ccc(Cl)cn3)cc2)nc2ccc(N)cc21 [Compound 203] | < 1000 nM | < 10 µM | > 20 µM
35 | OCCNc1nc2ccc(NC3COC3)cc2n1Cc1ccc(Oc2ccc(Cl)cc2)cc1 [Compound 204] | < 1000 nM | < 10 µM | < 10 µM
36 | CNc1nc2ccc(N)cc2n1Cc1ccc(Oc2ccc(Cl)cc2)cc1 [Compound 219] | < 1000 nM | < 10 µM | > 20 µM
37 | Cn1c(NCc2ccc(Oc3cccnc3)cc2)nc2ccc(NC3COC3)cc21 [Compound 227] | < 1000 nM | < 10 µM | < 10 µM
38 | CNc1nc2ccc(N)cc2n1Cc1ccc(Oc2ccc(Cl)cn2)cc1 [Compound 229] | < 1000 nM | < 10 µM | < 10 µM
39 | Nc1nc2ccc(NC3COC3)cc2n1Cc1ccc(Oc2ccc(Cl)cc2)cc1 [Compound 231] | < 1000 nM | < 10 µM | < 10 µM
40 | CN(C)c1nc2ccc(NCc3ccc(OCc4ncco4)cc3)cc2[nH]1 [Compound 233] | < 1000 nM | < 10 µM | < 10 µM
